Measured values published in the supplement of paper PMC12463676, “Small-molecule dissolution of stress granules by redox modulation benefits ALS models” (Nature Chemical Biology, 2025).

compound: NC(=O)CCCCC1CCSS1 [lipoamide]; experiment: thermal stability z-score vs DMSO; higher = more thermally stabilized by treatment; conditions: HeLa; lipoamide concentration 100 µM; arsenate co-treatment: none
Protocol: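 Cellular thermal proteome profiling in HeLa cells. Cells were treated with 100 µM lipoamide for 1 h, with or without 1 mM arsenate for a further 1 h, then heated to ten temperatures (37-66.3 °C), and soluble protein was quantified by TMT mass spectrometry relative to 0.1% DMSO controls. The thermal stability score (sum of log2 fold changes minus the abundance score) was transformed to a z-score; mean of n = 3 experiments.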
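Note: each temperature applied for 3 min, abundance score taken as mean log2 fold change at the two lowest temperatures, z-score obtained by mean subtraction and division by SD.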

UniProt Q96DH6, sequence (Q96DH6 whole entry): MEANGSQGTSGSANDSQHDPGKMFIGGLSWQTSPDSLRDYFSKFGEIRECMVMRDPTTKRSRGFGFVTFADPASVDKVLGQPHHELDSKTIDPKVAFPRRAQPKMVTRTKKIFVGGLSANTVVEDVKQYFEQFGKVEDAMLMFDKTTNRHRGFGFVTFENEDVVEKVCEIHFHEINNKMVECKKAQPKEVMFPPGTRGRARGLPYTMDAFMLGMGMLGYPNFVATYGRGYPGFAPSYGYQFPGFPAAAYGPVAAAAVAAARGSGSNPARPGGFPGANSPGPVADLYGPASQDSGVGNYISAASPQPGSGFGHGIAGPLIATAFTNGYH
UniProt Q5TKA1, sequence (Q5TKA1 whole entry): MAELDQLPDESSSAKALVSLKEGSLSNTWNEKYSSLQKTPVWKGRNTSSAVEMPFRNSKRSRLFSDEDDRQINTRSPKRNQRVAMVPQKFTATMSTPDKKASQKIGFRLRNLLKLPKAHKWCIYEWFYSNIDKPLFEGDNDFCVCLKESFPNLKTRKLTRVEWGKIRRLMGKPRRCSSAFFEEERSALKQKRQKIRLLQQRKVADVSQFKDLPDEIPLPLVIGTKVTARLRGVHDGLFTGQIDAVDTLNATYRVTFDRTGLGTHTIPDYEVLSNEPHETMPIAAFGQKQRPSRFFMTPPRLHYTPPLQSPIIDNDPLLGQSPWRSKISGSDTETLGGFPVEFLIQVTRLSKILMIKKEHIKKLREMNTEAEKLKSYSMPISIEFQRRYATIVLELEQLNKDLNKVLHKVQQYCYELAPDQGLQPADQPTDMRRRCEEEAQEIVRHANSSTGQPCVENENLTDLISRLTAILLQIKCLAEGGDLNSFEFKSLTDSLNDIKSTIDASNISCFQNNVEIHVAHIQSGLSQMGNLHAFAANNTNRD
UniProt O75427, sequence (O75427 whole entry): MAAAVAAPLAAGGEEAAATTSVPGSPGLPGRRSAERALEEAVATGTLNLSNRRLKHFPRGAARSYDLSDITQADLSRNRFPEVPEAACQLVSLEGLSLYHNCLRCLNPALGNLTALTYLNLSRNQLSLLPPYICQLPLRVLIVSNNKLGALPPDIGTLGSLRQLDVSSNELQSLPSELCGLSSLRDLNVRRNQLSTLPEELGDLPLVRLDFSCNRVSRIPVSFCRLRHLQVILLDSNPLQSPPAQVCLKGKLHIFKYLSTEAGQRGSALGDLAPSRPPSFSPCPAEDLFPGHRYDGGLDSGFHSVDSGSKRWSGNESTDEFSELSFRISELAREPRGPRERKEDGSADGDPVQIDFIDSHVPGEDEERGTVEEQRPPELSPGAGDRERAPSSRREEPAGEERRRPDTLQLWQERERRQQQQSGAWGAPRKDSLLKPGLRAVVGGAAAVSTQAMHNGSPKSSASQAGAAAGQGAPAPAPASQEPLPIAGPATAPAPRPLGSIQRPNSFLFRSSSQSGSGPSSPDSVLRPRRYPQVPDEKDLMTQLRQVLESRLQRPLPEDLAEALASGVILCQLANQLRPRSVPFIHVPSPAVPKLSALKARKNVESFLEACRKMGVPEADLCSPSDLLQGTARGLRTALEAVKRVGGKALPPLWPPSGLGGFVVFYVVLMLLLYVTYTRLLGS
UniProt O75061, sequence (O75061 whole entry): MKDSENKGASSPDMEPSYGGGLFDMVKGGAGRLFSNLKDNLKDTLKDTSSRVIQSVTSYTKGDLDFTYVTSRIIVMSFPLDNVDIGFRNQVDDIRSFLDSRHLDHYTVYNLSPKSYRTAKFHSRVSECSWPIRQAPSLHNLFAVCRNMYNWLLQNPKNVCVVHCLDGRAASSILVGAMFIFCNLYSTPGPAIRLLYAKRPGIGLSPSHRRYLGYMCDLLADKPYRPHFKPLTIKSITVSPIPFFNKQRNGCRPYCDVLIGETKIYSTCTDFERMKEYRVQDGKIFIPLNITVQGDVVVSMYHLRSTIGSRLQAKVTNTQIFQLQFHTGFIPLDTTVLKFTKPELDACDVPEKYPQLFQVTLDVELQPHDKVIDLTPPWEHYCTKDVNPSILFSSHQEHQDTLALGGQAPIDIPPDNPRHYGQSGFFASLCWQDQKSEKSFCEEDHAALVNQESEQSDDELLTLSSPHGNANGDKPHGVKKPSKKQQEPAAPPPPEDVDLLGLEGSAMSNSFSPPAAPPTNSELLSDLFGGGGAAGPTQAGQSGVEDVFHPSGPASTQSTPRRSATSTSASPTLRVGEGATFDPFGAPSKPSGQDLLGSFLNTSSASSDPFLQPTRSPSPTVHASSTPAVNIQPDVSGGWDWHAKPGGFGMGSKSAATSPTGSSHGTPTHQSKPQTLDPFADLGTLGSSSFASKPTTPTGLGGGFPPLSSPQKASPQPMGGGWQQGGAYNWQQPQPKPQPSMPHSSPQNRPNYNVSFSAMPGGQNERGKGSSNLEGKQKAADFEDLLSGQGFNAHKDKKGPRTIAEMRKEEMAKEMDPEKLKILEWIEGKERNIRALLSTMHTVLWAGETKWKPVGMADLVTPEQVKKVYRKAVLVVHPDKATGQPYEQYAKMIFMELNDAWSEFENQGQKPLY
UniProt Q86XI2, sequence (Q86XI2 whole entry): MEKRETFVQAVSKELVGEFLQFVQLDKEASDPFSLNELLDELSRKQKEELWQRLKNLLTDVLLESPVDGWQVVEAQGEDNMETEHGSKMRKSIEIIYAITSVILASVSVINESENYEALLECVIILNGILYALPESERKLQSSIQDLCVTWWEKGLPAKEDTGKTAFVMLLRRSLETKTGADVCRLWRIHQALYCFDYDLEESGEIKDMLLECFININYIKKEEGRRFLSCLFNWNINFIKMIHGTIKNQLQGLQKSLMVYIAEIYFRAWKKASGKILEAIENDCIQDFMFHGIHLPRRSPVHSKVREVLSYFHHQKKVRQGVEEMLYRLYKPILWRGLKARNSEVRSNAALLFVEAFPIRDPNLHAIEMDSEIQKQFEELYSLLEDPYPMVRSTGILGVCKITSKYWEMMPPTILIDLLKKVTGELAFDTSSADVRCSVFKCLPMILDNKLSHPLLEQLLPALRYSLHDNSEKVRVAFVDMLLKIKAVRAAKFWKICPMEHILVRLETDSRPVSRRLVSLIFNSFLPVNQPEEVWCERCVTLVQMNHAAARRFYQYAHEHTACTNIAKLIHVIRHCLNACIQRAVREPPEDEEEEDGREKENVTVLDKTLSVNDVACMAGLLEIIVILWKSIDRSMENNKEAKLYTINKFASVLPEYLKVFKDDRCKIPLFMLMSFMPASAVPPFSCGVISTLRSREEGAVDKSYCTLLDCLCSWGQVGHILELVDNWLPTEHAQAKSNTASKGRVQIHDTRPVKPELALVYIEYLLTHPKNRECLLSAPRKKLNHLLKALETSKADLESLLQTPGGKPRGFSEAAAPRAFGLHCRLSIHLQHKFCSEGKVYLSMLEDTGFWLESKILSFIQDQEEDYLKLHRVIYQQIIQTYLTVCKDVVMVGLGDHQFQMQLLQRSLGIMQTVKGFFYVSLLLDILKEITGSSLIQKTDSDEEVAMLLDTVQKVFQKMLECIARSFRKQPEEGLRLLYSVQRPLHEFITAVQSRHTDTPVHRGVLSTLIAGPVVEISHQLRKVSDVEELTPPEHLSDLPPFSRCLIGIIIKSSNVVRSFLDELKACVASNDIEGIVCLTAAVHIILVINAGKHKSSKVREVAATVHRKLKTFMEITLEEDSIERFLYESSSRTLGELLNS
UniProt Q92585, sequence (Q92585 whole entry): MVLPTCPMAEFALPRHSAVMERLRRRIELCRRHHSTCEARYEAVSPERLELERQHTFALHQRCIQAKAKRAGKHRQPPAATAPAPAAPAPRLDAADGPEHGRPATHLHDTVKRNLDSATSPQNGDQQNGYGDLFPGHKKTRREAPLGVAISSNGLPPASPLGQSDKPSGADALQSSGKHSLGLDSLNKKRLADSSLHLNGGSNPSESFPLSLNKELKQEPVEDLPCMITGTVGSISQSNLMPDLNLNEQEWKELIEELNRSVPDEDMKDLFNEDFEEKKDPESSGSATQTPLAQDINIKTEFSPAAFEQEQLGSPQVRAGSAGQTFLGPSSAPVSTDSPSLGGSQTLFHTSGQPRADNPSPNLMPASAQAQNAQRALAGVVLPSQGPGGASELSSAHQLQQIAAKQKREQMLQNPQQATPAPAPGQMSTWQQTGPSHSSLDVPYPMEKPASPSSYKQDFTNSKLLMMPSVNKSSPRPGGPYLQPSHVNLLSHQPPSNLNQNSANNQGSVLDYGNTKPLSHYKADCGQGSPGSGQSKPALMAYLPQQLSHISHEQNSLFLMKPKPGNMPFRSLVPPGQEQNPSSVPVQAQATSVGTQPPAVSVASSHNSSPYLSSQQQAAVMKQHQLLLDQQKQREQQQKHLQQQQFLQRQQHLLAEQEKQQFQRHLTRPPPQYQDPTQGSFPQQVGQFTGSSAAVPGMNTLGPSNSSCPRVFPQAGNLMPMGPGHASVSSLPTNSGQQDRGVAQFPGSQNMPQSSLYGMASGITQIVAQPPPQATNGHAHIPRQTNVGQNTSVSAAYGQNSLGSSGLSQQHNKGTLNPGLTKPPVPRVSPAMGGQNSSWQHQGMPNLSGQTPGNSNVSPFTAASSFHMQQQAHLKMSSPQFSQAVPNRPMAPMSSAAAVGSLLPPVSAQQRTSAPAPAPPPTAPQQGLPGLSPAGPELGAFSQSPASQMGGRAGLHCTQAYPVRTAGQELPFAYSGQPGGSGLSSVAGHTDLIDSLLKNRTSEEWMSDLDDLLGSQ
UniProt P36957, sequence (P36957 whole entry): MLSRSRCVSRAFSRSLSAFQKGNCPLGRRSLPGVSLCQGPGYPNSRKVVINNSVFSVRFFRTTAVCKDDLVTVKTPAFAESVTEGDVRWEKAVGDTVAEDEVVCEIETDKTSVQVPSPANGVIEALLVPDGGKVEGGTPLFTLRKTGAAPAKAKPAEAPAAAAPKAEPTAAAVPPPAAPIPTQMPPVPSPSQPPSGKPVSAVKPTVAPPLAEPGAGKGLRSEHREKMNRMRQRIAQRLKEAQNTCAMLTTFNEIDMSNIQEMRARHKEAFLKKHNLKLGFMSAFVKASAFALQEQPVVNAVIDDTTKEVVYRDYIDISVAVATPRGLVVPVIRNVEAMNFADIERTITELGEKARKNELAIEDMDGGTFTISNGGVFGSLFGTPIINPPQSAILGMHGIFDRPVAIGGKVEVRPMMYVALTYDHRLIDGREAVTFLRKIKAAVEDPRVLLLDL

Target	thermal stability z-score
MCM2 (UniProt P49736)	-0.391
PTPRS (UniProt Q13332)	-0.198
MELK (UniProt Q14680)	-0.0146
MSI2 (UniProt Q96DH6)	0.136
POLA2 (UniProt Q14181)	-0.0588
DLST (UniProt P36957)	0.38
QTRTD1 (UniProt Q9H974)	-0.447
CEP192 (UniProt Q8TEP8)	-0.467
SNU13 (UniProt P55769)	0.0598
MAML1 (UniProt Q92585)	0.017
RFC3 (UniProt P40938)	-0.365
PRMT5 (UniProt O14744)	0.231
LIN9 (UniProt Q5TKA1)	-0.263
MRPS18B (UniProt Q9Y676)	0.013
FAM129B (UniProt Q96TA1)	0.517
ZFR (UniProt Q96KR1)	0.0288
STXBP4 (UniProt Q6ZWJ1)	0.0111
DOCK1 (UniProt Q14185)	-1.05

Target	thermal stability z-score
ARHGEF5 (UniProt Q12774)	0.596
GCC2 (UniProt Q8IWJ2)	-0.098
PITX1 (UniProt P78337)	-0.0855
ENO1 (UniProt P06733)	0.278
FASTKD5 (UniProt Q7L8L6)	0.633
SAAL1 (UniProt Q96ER3)	-0.345
NCAPG2 (UniProt Q86XI2)	-0.0717
RPL3 (UniProt P39023)	-0.0552
NCLN (UniProt Q969V3)	-2.85
RAB5B (UniProt P61020)	-0.614
BICC1 (UniProt Q9H694)	0.353
ALKBH6 (UniProt Q3KRA9)	0.0821
BTAF1 (UniProt O14981)	0.175
DNAJC6 (UniProt O75061)	0.625
NDUFS5 (UniProt O43920)	-0.963
LRCH4 (UniProt O75427)	-0.101
GNAI1 (UniProt P63096)	1.18
CAV1 (UniProt Q03135)	0.74

compound: O=[As]([O-])(O)O.[K+] [potassium arsenate]; experiment: as above; conditions: HeLa; arsenate concentration 1 mM
Protocol: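 Cellular thermal proteome profiling in HeLa cells treated with 1 mM arsenate for 1 h (DMSO pretreatment), heated to ten temperatures (37-66.3 °C). Soluble protein was quantified by TMT mass spectrometry relative to DMSO controls; the thermal stability score was transformed to a z-score; mean of n = 3 experiments.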

Target	thermal stability z-score
NDUFB4 (UniProt O95168)	0.489
AGK (UniProt Q53H12)	0.573
EPRS (UniProt P07814)	0.432
SUMF2 (UniProt Q8NBJ7)	0.544
ATXN3 (UniProt P54252)	-0.115
DYRK1A (UniProt Q13627)	0.54
DYNC1H1 (UniProt Q14204)	-0.164
TNPO3 (UniProt Q9Y5L0)	-0.107
SUPT6H (UniProt Q7KZ85)	-1
WDR26 (UniProt Q9H7D7)	-0.602
RUVBL2 (UniProt Q9Y230)	-0.75
ACP2 (UniProt P11117)	0.375
TRMU (UniProt O75648)	-0.558
ZMYM1 (UniProt Q5SVZ6)	-0.798
CYC1 (UniProt P08574)	-1.31
TMEM165 (UniProt Q9HC07)	0.116
UBE4A (UniProt Q14139)	0.86
APH1A (UniProt Q96BI3)	-0.696
SUOX (UniProt P51687)	0.168
EXOC5 (UniProt O00471)	-0.0647
MMAB (UniProt Q96EY8)	-0.58
PRKDC (UniProt P78527)	-0.559
PMS1 (UniProt P54277)	-0.486
GART (UniProt P22102)	-0.419

Target	thermal stability z-score
C1GALT1 (UniProt Q9NS00)	-0.0716
SCRN3 (UniProt Q0VDG4)	-0.0506
KPNA6 (UniProt O60684)	0.446
TCP11L1 (UniProt Q9NUJ3)	0.586
UQCC1 (UniProt Q9NVA1)	1.5
DPP7 (UniProt Q9UHL4)	-0.0217
VPS52 (UniProt Q8N1B4)	-0.0774
ARFIP1 (UniProt P53367)	0.0115
H2AFZ|H2AFV	-1.63
TUBGCP3 (UniProt Q96CW5)	0.123
PDK2 (UniProt Q15119)	0.0862
MCM2 (UniProt P49736)	-0.389
PTPRS (UniProt Q13332)	-0.0489
MELK (UniProt Q14680)	-0.32
MSI2 (UniProt Q96DH6)	0.082
POLA2 (UniProt Q14181)	-0.183
DLST (UniProt P36957)	-5.05
QTRTD1 (UniProt Q9H974)	-0.765
CEP192 (UniProt Q8TEP8)	0.0297
SNU13 (UniProt P55769)	1.62
MAML1 (UniProt Q92585)	1.03
RFC3 (UniProt P40938)	-0.0936
PRMT5 (UniProt O14744)	-0.408
LIN9 (UniProt Q5TKA1)	-0.121

Target	thermal stability z-score
MRPS18B (UniProt Q9Y676)	0.102
FAM129B (UniProt Q96TA1)	-1.01
ZFR (UniProt Q96KR1)	-0.37
STXBP4 (UniProt Q6ZWJ1)	-0.111
DOCK1 (UniProt Q14185)	0.0692
ARHGEF5 (UniProt Q12774)	0.214
GCC2 (UniProt Q8IWJ2)	0.827
PITX1 (UniProt P78337)	0.027
ENO1 (UniProt P06733)	-0.0281
FASTKD5 (UniProt Q7L8L6)	0.437
SAAL1 (UniProt Q96ER3)	0.336
NCAPG2 (UniProt Q86XI2)	-0.267
RPL3 (UniProt P39023)	-0.75
NCLN (UniProt Q969V3)	0.537
RAB5B (UniProt P61020)	-0.758
BICC1 (UniProt Q9H694)	-0.19
ALKBH6 (UniProt Q3KRA9)	3.15
BTAF1 (UniProt O14981)	-0.192
DNAJC6 (UniProt O75061)	0.413
NDUFS5 (UniProt O43920)	0.133
LRCH4 (UniProt O75427)	-0.13
GNAI1 (UniProt P63096)	0.0642
CAV1 (UniProt Q03135)	1.02
